Entries after “also recorded” stand apart in the source; their conditions may differ. Read-outs that look alike come from different tables or passages of the source.
What was measured:
[1] = target: T1, P23H opsin (Bos taurus, UniProt P02699, P23H); assay: Yield of folded P23H rhodopsin purified from P23H opsin expressing HEK293 cells, by spectrophotometry; format: cell-based, bovine; conditions: for % Increase in P23H Yield (Table 1): compound concentration 100 μM, compared to control; for increase in the yield of folded P23H rhodopsin: P23H opsin expressing cells treated with compound, versus no compound; for yield of folded P23H rhodopsin, in words: versus absence of the compound; for increase in P23H pigment over control: compound present during P23H opsin expression, 48 hours, β-ionone 10 μM
T1 construct: expressed in transfected cells
Experimental: Wild-type (WT) and P23H expressing stable cell lines were generated in a commercially available cloning system, the Flp-In T-Rex System™ (Invitrogen). The stable cells were grown in DMEM high glucose media supplemented with 10% (vlv) fetal bovine serum, antibiotic antimycotic solution, […] blasticidin and hygromycin at 37° C. in presence of 5% CO2. For all the experiments the cells were allowed to reach confluence and were induced with 1 μg/ml tetracycline after change of media and then compounds were added. The plates were incubated for 48 h after which the cells were harvested.
For purification of rhodopsin 100 μM […] was added to a confluent plate of P23H cells after induction. […] Rhodopsin purification was essentially as described below for opsin purification with minor modifications. Briefly, the cells were harvested and washed with PBS followed by incubation with 50 μM 11-cis-retinal for 1.5 h at 4° C. The cells were then washed three times with PBS to remove excess retinal. Lysis, column binding and elution from the column were same as in case of opsin purification.
Stable cell lines expressing the P23H opsin were generated using Flp-In T-Rex system (Invitrogen) in HEK293 cell line. To create plasmids for constructing stable cell lines, an EcoRI-NotI fragment from the wild-type or P23H mutant synthetoc bovine opsin gene in pMT4 (see Kaushal et al., Biochemistry, Vol. 33, pp. 6121-6128 (1994) was combined with the large EcoRI-NotI fragment of pcDNA5/FRT/TO (Invitrogen). The resulting plasmids contain opsin under the control of a tetracycline-inducible human cytomegalovirus promoter and a flippase recognition sequence (FRT) for site sepecific recombination at the unique chromosomal FRT site of HEK293 Flp-In T-Rex. The opsin sequence in these plasmids was verified by PCR cycle sequencing. To construct stable cell lines, HEK293 Flp-In T-Rex cells were co-transfected with the flippase vector pOG44 (from Invitrogen) and the pcDNA5/FRT/TO vector or its derivatives containing the opsin gene. Stable recombinants were obtained by selecting for cells expressing resistance to hygromycin due to plasmid recombination at the FRT site. After the initial selection, the stable cell lines were routinely grown in the same media as HEK293 Flp-In T-rex, except that […].
The stable cells were grown in DMEM high glucose media supplemented with 10% (v/v) fetal bovine serum, antibiotic/antimycotic solution, 5 μg/ml blasticidin and hygromycin at 37° C. in presence of 5% CO2. For all the experiments the cells were allowed to reach confluence and were induced with 1 μg/mi tetracycline after change of media and then compounds were added. The plates were incubated for 48 h after which the cells were harvested.
The effect of the compounds on P23H rhodopsin yield was assessed by purifying and spectrophotormetrically determining the yield. After 48 hours of induction and treatment with compounds the cells were harvested and rhodopsin purified essentially as described in Noorwez et al. (2004). For purification of rhodopsin 100 μM NCI-45012 was added to a confluent plate of P23H cells after induction. […] Rhodopsin purification was essentially as described earlier for opsin purification with minor modifications. Briefly, the cells were harvested and washed with PBS followed by incubation with 50 μM 11-cis-retinal for 1.5 hours at 4° C., The cells were then washed three times with PBS to remove excess retinal. Lysis, column binding and elution from the column were the same as for opsin purification.
Compounds identified by computational modeling (see Example 1) were screened as described above. The effect of compounds on the yield of mutant rhodopsin was determined by spectrophotometry. […]

[2] = system: P347S (Class I) mice; conditions: cited from earlier work
[3] = system: T17M (Class II) mice; conditions: cited from earlier work
[4] = target: T2, WT opsin (Bos taurus, UniProt P02699); assay: Opsin regeneration and retinal competition: rate of 500 nm pigment formation of purified WT opsin with 11-cis-retinal; format: biochemical, bovine
Experimental: WT opsin producing cells were grown in 10 cm culture plates and induced for opsin production. After 48 hour of induction the cells were harvested and washed with PBS (10 mM sodium phosphate, 130 mM NaCl, pH 7.2). The cells were lysed in PBSD (PBS containing 1.0% DM and 1× protease inhibitor cocktail) for 1 hour and the lysate was added to 1D4 coupled sepharose beads and incubated for 1 hour at 4° C. The beads were washed 5 times in PBSD and twice with 10 mM sodium phosphate buffer containing 0.5% DM, pH 6.0. The bound WT opsin was eluted with a competing peptide representing the last 18 amino acids of rhodopsin in the latter buffer for 1 hour.
All the opsin regeneration and competition assays were performed under dim red light in a Cary 50 spectrophotometer (Varian) equipped with temperature control. 25 μM purified WT opsin was mixed with 50 μM 11-cis retinal and scanned every two minutes in the range of 250-650 nm until no more rhodopsin was regenerated. Similarly opsin was mixed with compound SN10011 (2 or 5 mM) and allowed to sit for 10 minutes on ice. […] The reactions were conducted in 100 μl total volume where the compounds were provided in 2 μl solution to 98 μl opsin solution. The temperature was maintained at 20° C.

[5] = target: T2, WT opsin; format: biochemical, bovine; conditions: compound without 11-cis-retinal chromophore, in vitro
Experimental: The cells were washed after 48 h and rhodopsin purified without treating the cells with 11-cis-retinal under conditions that yield only folded rhodopsin (Noorwez et al. (2004)).

[6] = target: T1, P23H opsin; format: cell-based, bovine
Experimental: (§1) The P23H opsin producing cells were grown in 6-well plates and induced to produce P23H opsin. The DMSO solutions of the NCI compounds were individually added to separate wells at a final concentration of 100 μM. After incubation for 48 h cells were collected and washed with PBS. The cells were then lysed in PBSD by constantly rotating for 1 h at 4° C. The tubes were spun at 36000 rpm for […] and supernatant collected in fresh tubes. Total protein was quantified using a commercially available assay system, the DC protein assay (Biorad). Equal amounts of protein (10 μg) from different samples was loaded on 4-20% SDS polyacrylamide gels and total opsin quantified by western blotting.
as §1, with “the test” for “the NCI”, “1 hour” for “1 h”, “at 36,000” for “at 36000”, “using” for “using a commercially available assay system, the”, “blotting. Proteins were separated on SDS-PAGE gels and western blotted as described in Noorwez et at (2004).” for “blotting.”
Thus, a higher fraction of P23H molecules attain a stable conformation. […] This might also explain the difference in the degree of rescue obtained with these two pharmacological chaperones.

[7] = target: T1, P23H opsin; assay: Yield of folded P23H rhodopsin purified from P23H opsin expressing HEK293 cells, by spectrophotometry; format: cell-based, bovine; conditions: 48 h, no 11-cis-retinal
[8] = in the presence of 11-cis-retinal

Cc1cc([N+](=O)[O-])ccn1 [Compound 4, 2-methyl-4-nitro-pyridine]
% Increase in P23H Yield (Table 2) [1]: 25 ± 8%
% Increase in P23H Yield (Table 1) [1]: 24%

CCCCCCCCCCCCCCCC(=O)OC/C=C(C)/C=C/C=C(C)/C=C/C1=C(C)CCCC1(C)C [vitamin A palmitate]
changes in retinal degeneration on treatment [2]: no significant changes
decrease in outer nuclear layer (ONL) thickness in treated animals [3]: 24%
decrease in the rate of decline in electroretinogram (ERG) a- and b-wave amplitudes [3]: 40-45%

Cn1cc(C(N)=O)ccc1=N [NSC 66688, 6-imino-1-methyl-1,6-dihydro-3-pyridinecarboxamine]
% Increase in P23H Yield (Table 2) [1]: 40 ± 9%

C[C@@H]1CCC[C@H](C)C1 [cis-1,3-dimethylcyclohexane]
increase in the yield of folded P23H rhodopsin [1]: 15%
yield of folded P23H rhodopsin, in words [1]: increased yield of folded P23H rhodopsin
inhibition of opsin regeneration (pigment formation with 11-cis-retinal), in words [4]: much weaker inhibitor of opsin regeneration

O=[PH](O)c1ccccc1 [Compound 3, phenyl-phosphinic acid]
% Increase in P23H Yield (Table 2) [1]: 40 ± 3%
% Increase in P23H Yield (Table 1) [1]: 32%

Oc1ccccc1C=Nn1cnnc1 [NSC 121968, 4-Salicylideneamino-1,2,4-triazol]
% Increase in P23H Yield (Table 2) [1]: 29 ± 5%

CC(=O)c1c(C)n[nH]c1C [Compound 1, 1-(3,5-dimethyl-1H-pyrazol-4-yl)ethanone]
% Increase in P23H Yield (Table 2) [1]: 30 ± 5%
increase in the yield of folded P23H rhodopsin [1]: 30%
% Increase in P23H Yield (Table 1) [1]: 31%
yield of folded P23H rhodopsin, in words [1]: increased yield of folded rhodopsin
inhibition of opsin regeneration (pigment formation with 11-cis-retinal), in words ([4]; listed as SN10011): significant effect on inhibition of pigment formation; also recorded: inhibited
formation of a 500 nm absorbing pigment with purified WT opsin ([5]; listed as SN10011): No pigment was formed; also recorded: No 500 nm absorbing pigment was generated

CC1=C(/C=C/C(C)=C/C=C/C(C)=C/C=O)C(C)(C)CCC1 [11-cis-retinal, reference compound]
effectiveness of 11-cis-retinal relative to β-ionone in increasing cellular yields of P23H rhodopsin [1]: about 2 fold
increase in P23H pigment over control [1]: 5 fold
increase in yield of total opsin [6, 8]: 2.4 fold
yield of folded rhodopsin [6, 8]: 2.6 fold

N#Cc1cn(Cc2ccco2)c(=O)[nH]c1=O [Compound 2, 1-furan-2-ylmethyl-2,4-dioxo-1,2,3,4-tetrahydro-pyrimidine-5-carbonitrile]
% Increase in P23H Yield (Table 2) [1]: 40 ± 7%
% Increase in P23H Yield (Table 1) [1]: 43%

CC(C)N(CC#N)C(C)C [Compound 6, diisopropylaminoacetonitrile]
% Increase in P23H Yield (Table 2) [1]: 25 ± 3%
% Increase in P23H Yield (Table 1) [1]: 28%

N#Cc1ccc2c(c1)OCO2 [NSC 27009, 3,4-Methylenedioxybenzonitrile]
% Increase in P23H Yield (Table 2) [1]: 20 ± 5%

O=C1NC(CCO)C(=O)NC1CCO (centres unmarked) [Compound 5, 3,6-bis-(2-hydroxyethy)-piperazine-2,5-dione]
% Increase in P23H Yield (Table 2) [1]: 30 ± 10%
% Increase in P23H Yield (Table 1) [1]: 15%

CC(=O)/C=C/C1=C(C)CCCC1(C)C [β-ionone]
increase in P23H pigment over control [1]: 2.5 fold
inhibition of opsin regeneration (pigment formation with 11-cis-retinal), in words [4]: inhibited opsin regeneration in a dose dependent manner
pigment from P23H HEK cells treated with compound, purified without 11-cis-retinal treatment [7]: No pigment was detected; also recorded: No pigment was observed; also recorded: No pigment was generated
increase in yield of total opsin relative to no compound ([6]; P23H cells, β-ionone): 30%
formation of a 500 nm absorbing pigment with purified WT opsin [5]: does not form a light absorbing pigment; also recorded: did not form a 500 nm absorbing pigment; also recorded: no 500 nm absorbing pigment was formed

Nn1nnc2ccccc21 [NSC 114498, 1H-1,2,3-benzotriazol-1-amine]
% Increase in P23H Yield (Table 2) [1]: 30 ± 6%

From patent US20090286808A1, “Opsin Stabilizing Compounds and Methods of Use” (University of Florida Research Foundation, Inc., priority 2006, published 2009)
